Experimental data published in ChEMBL document CHEMBL4004803, “Syntheses and antibacterial activity of soluble 9-bromo substituted indolizinoquinoline-5,12-dione derivatives” (Eur J Med Chem, 2017).
Values after ≈ are worked out from the molar mass of the structure shown.

What was measured:
[1] = system: Staphylococcus aureus; assay: Antibacterial activity against methicillin-resistant Staphylococcus aureus 1029025 clinical isolate after 20 to 24 hrs by two-fold microdilution method; type: functional
[2] = system: Staphylococcus aureus; assay: Antibacterial activity against methicillin-resistant Staphylococcus aureus clinical isolate after 20 to 24 hrs by two-fold microdilution method; type: functional
[3] = system: Staphylococcus aureus; assay: Antibacterial activity against methicillin-resistant Staphylococcus aureus 1024010 clinical isolate after 20 to 24 hrs by two-fold microdilution method; type: functional
[4] = system: Staphylococcus aureus; assay: Antibacterial activity against methicillin-resistant Staphylococcus aureus 10844 clinical isolate after 20 to 24 hrs by two-fold microdilution method; type: functional
[5] = system: Staphylococcus aureus; assay: Antibacterial activity against methicillin-resistant Staphylococcus aureus 111423 clinical isolate after 20 to 24 hrs by two-fold microdilution method; type: functional
[6] = system: Staphylococcus aureus; assay: Antibacterial activity against methicillin-resistant Staphylococcus aureus 625032 clinical isolate after 20 to 24 hrs by two-fold microdilution method; type: functional
[7] = system: Staphylococcus aureus; assay: Antibacterial activity against methicillin-resistant Staphylococcus aureus 814039 clinical isolate after 20 to 24 hrs by two-fold microdilution method; type: functional
[8] = system: Staphylococcus aureus; assay: Antibacterial activity against methicillin-resistant Staphylococcus aureus 103054 clinical isolate after 20 to 24 hrs by two-fold microdilution method; type: functional
[9] = system: Staphylococcus aureus; assay: Antibacterial activity against methicillin-resistant Staphylococcus aureus 102849 clinical isolate after 20 to 24 hrs by two-fold microdilution method; type: functional
[10] = system: Staphylococcus aureus; assay: Antibacterial activity against methicillin-resistant Staphylococcus aureus 912014 clinical isolate after 20 to 24 hrs by two-fold microdilution method; type: functional
[11] = system: Staphylococcus aureus; assay: Antibacterial activity against methicillin-resistant Staphylococcus aureus 20339 clinical isolate after 20 to 24 hrs by two-fold microdilution method; type: functional
[12] = system: Staphylococcus aureus; assay: Antibacterial activity against methicillin-resistant Staphylococcus aureus 519028 clinical isolate after 20 to 24 hrs by two-fold microdilution method; type: functional
[13] = system: Staphylococcus aureus; assay: Antibacterial activity against methicillin-resistant Staphylococcus aureus 110328-1 clinical isolate after 20 to 24 hrs by two-fold microdilution method; type: functional
[14] = system: Staphylococcus aureus; assay: Antibacterial activity against methicillin-resistant Staphylococcus aureus 110834 clinical isolate after 20 to 24 hrs by two-fold microdilution method; type: functional
[15] = system: Staphylococcus aureus; assay: Antibacterial activity against methicillin-resistant Staphylococcus aureus 305026 clinical isolate after 20 to 24 hrs by two-fold microdilution method; type: functional
[16] = system: Staphylococcus aureus; assay: Antibacterial activity against methicillin-resistant Staphylococcus aureus 202045 clinical isolate after 20 to 24 hrs by two-fold microdilution method; type: functional
[17] = system: Staphylococcus aureus; assay: Antibacterial activity against methicillin-resistant Staphylococcus aureus 121969 clinical isolate after 20 to 24 hrs by two-fold microdilution method; type: functional
[18] = system: Staphylococcus aureus; assay: Antibacterial activity against methicillin-resistant Staphylococcus aureus 110432 clinical isolate after 20 to 24 hrs by two-fold microdilution method; type: functional
[19] = system: Staphylococcus aureus; assay: Antibacterial activity against methicillin-resistant Staphylococcus aureus 1216052 clinical isolate after 20 to 24 hrs by two-fold microdilution method; type: functional
[20] = system: Staphylococcus aureus; assay: Antibacterial activity against methicillin-resistant Staphylococcus aureus 1212221 clinical isolate after 20 to 24 hrs by two-fold microdilution method; type: functional
[21] = system: Staphylococcus aureus; assay: Antibacterial activity against methicillin-resistant Staphylococcus aureus 1214023 clinical isolate after 20 to 24 hrs by two-fold microdilution method; type: functional
[22] = system: Staphylococcus aureus; assay: Antibacterial activity against methicillin-resistant Staphylococcus aureus 316038 clinical isolate after 20 to 24 hrs by two-fold microdilution method; type: functional
[23] = system: Staphylococcus aureus; assay: Antibacterial activity against methicillin-resistant Staphylococcus aureus 214026 clinical isolate after 20 to 24 hrs by two-fold microdilution method; type: functional
[24] = system: Staphylococcus aureus; assay: Antibacterial activity against methicillin-resistant Staphylococcus aureus 20534 clinical isolate after 20 to 24 hrs by two-fold microdilution method; type: functional
[25] = system: Staphylococcus aureus; assay: Antibacterial activity against methicillin-resistant Staphylococcus aureus 1025022 clinical isolate after 20 to 24 hrs by two-fold microdilution method; type: functional
[26] = system: Staphylococcus aureus; assay: Antibacterial activity against methicillin-resistant Staphylococcus aureus 502025 clinical isolate after 20 to 24 hrs by two-fold microdilution method; type: functional
[27] = system: Staphylococcus aureus; assay: Antibacterial activity against methicillin-resistant Staphylococcus aureus 11703 clinical isolate after 20 to 24 hrs by two-fold microdilution method; type: functional
[28] = system: Staphylococcus aureus; assay: Antibacterial activity against methicillin-resistant Staphylococcus aureus 109016 clinical isolate after 20 to 24 hrs by two-fold microdilution method; type: functional
[29] = system: Staphylococcus aureus; assay: Antibacterial activity against methicillin-resistant Staphylococcus aureus 224001 clinical isolate after 20 to 24 hrs by two-fold microdilution method; type: functional
[30] = system: Staphylococcus aureus; assay: Antibacterial activity against methicillin-resistant Staphylococcus aureus 110325 clinical isolate after 20 to 24 hrs by two-fold microdilution method; type: functional
[31] = system: Staphylococcus aureus; assay: Antibacterial activity against methicillin-resistant Staphylococcus aureus 123152 clinical isolate after 20 to 24 hrs by two-fold microdilution method; type: functional
[32] = system: Staphylococcus aureus; assay: Antibacterial activity against methicillin-resistant Staphylococcus aureus GLH15 clinical isolate after 20 to 24 hrs by two-fold microdilution method; type: functional
[33] = system: Staphylococcus aureus; assay: Antibacterial activity against methicillin-resistant Staphylococcus aureus 1212057-1 clinical isolate after 20 to 24 hrs by two-fold microdilution method; type: functional
[34] = system: Staphylococcus aureus; assay: Antibacterial activity against methicillin-resistant Staphylococcus aureus 503025 clinical isolate after 20 to 24 hrs by two-fold microdilution method; type: functional
[35] = system: Streptococcus pyogenes; assay: Antibacterial activity against Streptococcus pyogenes ATCC 19615 after 20 to 24 hrs by two-fold microdilution method; type: functional
[36] = Solubility of the compound in water at 25 degC measured after shaking for 4 hrs by UV method; type: physicochemical; conditions: buffer, 4 h
[37] = system: Staphylococcus aureus; assay: Antibacterial activity against methicillin-resistant Staphylococcus aureus 518036 clinical isolate after 20 to 24 hrs by two-fold microdilution method; type: functional
[38] = system: Staphylococcus aureus; assay: Antibacterial activity against methicillin-resistant Staphylococcus aureus 19950 clinical isolate after 20 to 24 hrs by two-fold microdilution method; type: functional
[39] = system: Staphylococcus aureus; assay: Antibacterial activity against methicillin-resistant Staphylococcus aureus 1207026 clinical isolate after 20 to 24 hrs by two-fold microdilution method; type: functional
[40] = system: Staphylococcus aureus; assay: Antibacterial activity against methicillin-resistant Staphylococcus aureus 1024004-2 clinical isolate after 20 to 24 hrs by two-fold microdilution method; type: functional
[41] = system: Staphylococcus aureus; assay: Antibacterial activity against methicillin-resistant Staphylococcus aureus 111625 clinical isolate after 20 to 24 hrs by two-fold microdilution method; type: functional
[42] = system: Staphylococcus aureus; assay: Antibacterial activity against methicillin-resistant Staphylococcus aureus 1111047-1 clinical isolate after 20 to 24 hrs by two-fold microdilution method; type: functional
[43] = system: Staphylococcus aureus; assay: Antibacterial activity against methicillin-resistant Staphylococcus aureus 504008 clinical isolate after 20 to 24 hrs by two-fold microdilution method; type: functional
[44] = system: Staphylococcus aureus; assay: Antibacterial activity against methicillin-resistant Staphylococcus aureus 530231 clinical isolate after 20 to 24 hrs by two-fold microdilution method; type: functional
[45] = system: Staphylococcus aureus; assay: Antibacterial activity against methicillin-resistant Staphylococcus aureus 131215 clinical isolate after 20 to 24 hrs by two-fold microdilution method; type: functional
[46] = system: Staphylococcus aureus; assay: Antibacterial activity against […] Staphylococcus aureus ATCC 25923 after 20 to 24 hrs by two-fold microdilution method; type: functional
[47] = system: Staphylococcus aureus; assay: Antibacterial activity against methicillin-resistant Staphylococcus aureus 1026211 clinical isolate after 20 to 24 hrs by two-fold microdilution method; type: functional

SMILES: O=C1c2cccnc2C(=O)c2c1c(C(=O)OCCCCN1CCOCC1)c1ccc(Br)cn21
- MIC [1]: 0.5 mg/L (≈ 0.976 µM)
- MIC50 [2]: 0.5 mg/L (≈ 0.976 µM)
- MIC90 [2]: 1 mg/L (≈ 1.95 µM)
- MIC [3]: 0.5 mg/L (≈ 0.976 µM)
- MIC [4]: 0.5 mg/L (≈ 0.976 µM)
- MIC [5]: 8 mg/L (≈ 15.6 µM)
- MIC [6]: 0.5 mg/L (≈ 0.976 µM)
- MIC [7]: 0.25 mg/L (≈ 0.488 µM)
- MIC [8]: 0.5 mg/L (≈ 0.976 µM)
- MIC [9]: 0.5 mg/L (≈ 0.976 µM)
- MIC [10]: 0.5 mg/L (≈ 0.976 µM)
- MIC [11]: 0.5 mg/L (≈ 0.976 µM)
- MIC [12]: 0.5 mg/L (≈ 0.976 µM)
- MIC [13]: ≤ 0.0078 mg/L
- MIC [14]: 0.25 mg/L (≈ 0.488 µM)
- MIC [15]: 0.125 mg/L (≈ 0.244 µM)
- MIC [16]: 0.25 mg/L (≈ 0.488 µM)
- MIC [17]: 1 mg/L (≈ 1.95 µM)
- MIC [18]: 0.25 mg/L (≈ 0.488 µM)
- MIC [19]: 8 mg/L (≈ 15.6 µM)
- MIC [20]: 0.125 mg/L (≈ 0.244 µM)
- MIC [21]: 0.031 mg/L (≈ 0.0605 µM)
- MIC [22]: 0.25 mg/L (≈ 0.488 µM)
- MIC [23]: 0.063 mg/L (≈ 0.123 µM)
- MIC [24]: 1 mg/L (≈ 1.95 µM)
- MIC [25]: 0.125 mg/L (≈ 0.244 µM)
- MIC [26]: 0.5 mg/L (≈ 0.976 µM)
- MIC [27]: 0.5 mg/L (≈ 0.976 µM)
- MIC [28]: 0.5 mg/L (≈ 0.976 µM)
- MIC [29]: 1 mg/L (≈ 1.95 µM)
- MIC [30]: 0.25 mg/L (≈ 0.488 µM)
- MIC [31]: 0.25 mg/L (≈ 0.488 µM)
- MIC [32]: 0.25 mg/L (≈ 0.488 µM)
- MIC [33]: 0.25 mg/L (≈ 0.488 µM)
- MIC [34]: 1 mg/L (≈ 1.95 µM)
- MIC [35]: 4 mg/L (≈ 7.81 µM)
- solubility [36]: Insoluble
- MIC [37]: 0.5 mg/L (≈ 0.976 µM)
- MIC [38]: 1 mg/L (≈ 1.95 µM)
- MIC [39]: 0.5 mg/L (≈ 0.976 µM)
- MIC [40]: 0.5 mg/L (≈ 0.976 µM)
- MIC [41]: 0.5 mg/L (≈ 0.976 µM)
- MIC [42]: 1 mg/L (≈ 1.95 µM)
- MIC [43]: 0.25 mg/L (≈ 0.488 µM)
- MIC [44]: 0.5 mg/L (≈ 0.976 µM)
- MIC [45]: 0.125 mg/L (≈ 0.244 µM)
- MIC [46]: 0.063 mg/L (≈ 0.123 µM)
- MIC [47]: 0.063 mg/L (≈ 0.123 µM)
